In patent publication US9796733B2, “Imidazo-pyrazine derivatives useful as soluble guanylate cyclase activators” (Merck Sharp & Dohme Corp., priority 2014, dated 2017):
pEC50: −log10 of the molar value.

Target: T1, sGC α1/β1 heterodimer (Homo sapiens, UniProt Q02108+Q02153)
T1 construct: expressed in transfected cells; host or cells: CHO-K1 (clone #7, CHO-K1/sGC)
T1 sequence (Q02108 1-690): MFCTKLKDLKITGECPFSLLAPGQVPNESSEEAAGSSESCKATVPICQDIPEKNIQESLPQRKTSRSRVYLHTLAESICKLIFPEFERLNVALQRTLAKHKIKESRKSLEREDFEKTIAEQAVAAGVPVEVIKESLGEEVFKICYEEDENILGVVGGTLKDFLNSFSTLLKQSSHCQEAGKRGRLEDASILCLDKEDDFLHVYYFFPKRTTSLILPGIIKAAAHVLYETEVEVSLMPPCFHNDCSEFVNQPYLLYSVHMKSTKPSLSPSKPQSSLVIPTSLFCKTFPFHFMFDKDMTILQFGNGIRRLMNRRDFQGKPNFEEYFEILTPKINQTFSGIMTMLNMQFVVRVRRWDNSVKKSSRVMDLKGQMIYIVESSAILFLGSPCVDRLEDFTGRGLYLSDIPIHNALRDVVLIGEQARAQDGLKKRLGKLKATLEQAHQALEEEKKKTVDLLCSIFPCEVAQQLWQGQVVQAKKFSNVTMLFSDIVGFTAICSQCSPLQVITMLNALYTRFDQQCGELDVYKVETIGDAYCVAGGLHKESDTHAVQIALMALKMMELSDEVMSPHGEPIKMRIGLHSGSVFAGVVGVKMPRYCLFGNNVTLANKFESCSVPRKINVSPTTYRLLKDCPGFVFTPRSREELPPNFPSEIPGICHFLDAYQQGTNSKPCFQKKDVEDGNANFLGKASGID
T1 sequence (Q02153 1-619): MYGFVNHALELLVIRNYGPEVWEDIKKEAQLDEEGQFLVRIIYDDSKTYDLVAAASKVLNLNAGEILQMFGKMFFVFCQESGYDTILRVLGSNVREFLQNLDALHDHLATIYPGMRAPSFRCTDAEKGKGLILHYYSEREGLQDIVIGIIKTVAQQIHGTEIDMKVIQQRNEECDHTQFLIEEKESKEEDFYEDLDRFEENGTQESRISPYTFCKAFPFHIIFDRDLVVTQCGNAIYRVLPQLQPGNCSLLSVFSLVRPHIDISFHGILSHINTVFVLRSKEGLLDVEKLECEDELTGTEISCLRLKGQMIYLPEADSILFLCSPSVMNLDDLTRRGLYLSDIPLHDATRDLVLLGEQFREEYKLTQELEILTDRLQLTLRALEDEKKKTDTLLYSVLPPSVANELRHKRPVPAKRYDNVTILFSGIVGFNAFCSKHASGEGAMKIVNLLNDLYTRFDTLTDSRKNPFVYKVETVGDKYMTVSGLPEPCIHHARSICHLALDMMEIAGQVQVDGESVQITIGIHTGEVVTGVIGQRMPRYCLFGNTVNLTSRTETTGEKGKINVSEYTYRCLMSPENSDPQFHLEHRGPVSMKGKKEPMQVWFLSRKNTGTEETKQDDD
Experiment: Cell-based sGC functional assay (CASA assay): cGMP generation in CHO-K1/sGC cells, HTRF detection
Conditions: for Emax: CHO-K1, percent activation relative to standard Compound A in CHO-K1/sGC cells, read-out: % Act.; for pEC50: inflection point (IP) of cGMP generation in CHO-K1/sGC cells, 4P fit, activity expressed as percentage of Compound A
Excerpt: Biological Assay 1: Cell-Based sGC Functional Assay (CASA Assay)
sGC is a heme-containing enzyme that converts GTP to secondary messenger cGMP. Increases in cGMP levels affect several physiological processes including vasorelaxation through multiple downstream pathways. […] Heme-dependent activators (HDAs) preferentially activate sGC containing a ferrous heme group. To determine the effect of sGC activators on enzyme activity, the CASA assay was developed to monitor the generation of cGMP in a cell line that stably expresses the heterodimeric sGC protein.
A CHO-K1 cell line stably expressing the sGC α1/β1 heterodimer was generated using a standard transfection protocol. CHO-K1 cells were transfected with plasmids pIREShyghsGCal and pIRESneo-hsGCβ1 simultaneously using FUGENE reagent. Clones that stably express both subunits were selected with hygromycin and neomycin for 2 weeks. Clone #7 was chosen for the assay and was designated CHO-K1/sGC. CHO-K1/sGC cells were maintained in F-K12 medium containing 10% heat-inactivated Fetal Bovine Serum (FBS), 100 μg/mL penicillin/streptomycin, 0.5 mg/mL hygromycin and 0.25 mg/mL G418. The cells were then cryopreserved in LN2. On the day of the assay, cells thawed and resuspended in EBSS Assay Buffer (Sigma, E3024) supplemented with 5 mM MgCl2, 10 mM HEPES (4-(2-hydroxyethyl)piperazine-1-ethanesulfonic acid) and 0.05% BSA (bovine serum albumin) (EAB) and cell density was then adjusted to 4×10^5/mL with EAR IBMX (3-isobutyl-1-methylxanthin, 0.5 mM) was added to inhibit degradation of cGMP. Compounds were diluted from DMSO stock solutions and added to the assay at a final DMSO concentration of 2.5%. Cells were incubated with compounds in the presence and absence of 1 μM of Diethylenetriamine/nitric oxide adduct (DETA-NO; Sigma, 17018) for 1 hr at 37° C. At the end of the incubation period, the reaction was terminated and the cells were lysed with the detection reagents from Cisbio Kits. The level of intracellular cGMP was determined using an HTRF-based assay kit (CisBio, 62GM2PEC), which detects the displacement of a fluorescence labeled cGMP from its specific antibody. The cGMP produced by test compounds was directly compared to the maximum cGMP production (this value was set to equal 100% activation.) of the published sGC-HDA Compound A:
[drawing 597] (Example 1 in WO 2010/065275, published Jun. 10, 2010). The test compounds' activities were then expressed as a percentage of Compound A, the standard in every experiment. This percent activation was calculated either in the presence or absence of DETA-NO which was then plotted. IP and maximum fold induction was derived using ADA analysis software for 4P fit.
The compounds in the Examples of the instant invention had inflection points (IP) less than or equal to 10 μM and more particularly less than or equal to about 1 μM.

SMILES	Emax	pEC50	% Act. (percent activation relative to standard Compound A in CHO-K1/sGC cells)
CC1(c2ccc(Cl)cc2)C(=O)Nc2nc(-c3cn4ccnc4cn3)nc(N3CC(C(F)(F)F)C3)c21 (stereo not drawn) [Example 282A, 5-(4-chlorophenyl)-2-(imidazo[1,2-a]pyrazin-6-yl)-5-methyl-4-(3-(trifluromethyl)azetidin-1-yl)-5H-pyrrolo[2,3-d]pyrimidin-6(7H)-one]	153%	6.71	–
CC1(c2ccc(F)cc2)C(=O)Nc2nc(-c3cn4ccnc4c(-c4ccc(C5CC5)cc4)n3)nc(N)c21 (stereo not drawn) [Example 6A, 4-amino-2-(8-(4-cyclopropylphenyl)imidazo[1,2-a]pyrazin-6-yl)-5-(4-fluorophenyl)-5-methyl-5H-pyrrolo[2,3-d]pyrimidin-6(7H)-one]	115%	6.25	–
Nc1nc(-c2cn3ccnc3c(CCC(F)(F)C(F)(F)F)n2)nc2c1C(C(=O)NC1CC1)(C1CC1)C(=O)N2 (single isomer, unassigned) [Example 61B, 4-amino-N,5-dicyclopropyl-6-oxo-2-(8-(3,3,4,4,4-pentafluorobutyl)imidazo[1,2-a]pyrazin-6-yl)-6,7-dihydro-5H-pyrrolo[2,3-d]pyrimidine-5-carboxamide]	–	6.35	83%
CC1(c2ccc(F)cn2)C(=O)Nc2nc(-c3cn4ccnc4c(C4CCC4)n3)nc(N)c21 (stereo not drawn) [Example 27B, 4-amino-2-(8-cyclobutylimidazo[1,2-a]pyrazin-6-yl)-5-(5-fluoropyridin-2-yl)-5-methyl-5H-pyrrolo[2,3-d]pyrimidin-6(7H)-one]	85%	6.36	–
CC(F)(F)c1ccc(C2(C)C(=O)Nc3nc(-c4cn5ccnc5c(CCCC(F)(F)F)n4)nc(N)c32)cn1 (single isomer, unassigned) [Example 380B, 4-amino-5-(6-(1,1-difluoroethyl)pyridin-3-yl)-5-methyl-2-(8-(4,4,4-trifluorobutyl)imidazo[1,2-a]pyrazin-6-yl)-5H-pyrrolo[2,3-d]pyrimidin-6(7H)-one]	181%	7.46	–
Cc1ccc(C2(C)C(=O)Nc3nc(-c4cn5ccnc5c(Cc5ccc(F)cc5)n4)nc(N)c32)cn1 (stereo not drawn) [Example 105A, 4-amino-2-(8-(4-fluorobenzyl)imidazo[1,2-a]pyrazin-6-yl)-5-methyl-5-(6-methylpyridin-3-yl)-5H-pyrrolo[2,3-d]pyrimidin-6(7H)-one]	102%	6.42	–
CC(C)(C)CCc1nc(-c2nc(N)c3c(n2)NC(=O)C3(C)c2ccc(Cl)cc2)cn2ccnc12 (stereo not drawn) [Example 120A, 4-amino-5-(4-chlorophenyl)-2-(8-(3,3-dimethylbutyl)imidazo[1,2-a]pyrazin-6-yl)-5-methyl-5H-pyrrolo[2,3-d]pyrimidin-6(7H)-one]	112%	7.51	–
CCCCc1nc(-c2nc(N)c3c(n2)NC(=O)C3(C)c2ccc(Cl)cn2)cn2c(C)cnc12 (stereo not drawn) [Example 169A, 4-amino-2-(8-butyl-3-methylimidazo[1,2-a]pyrazin-6-yl)-5-(5-chloropyridin-2-yl)-5-methyl-5H-pyrrolo[2,3-d]pyrimidin-6(7H)-one]	75%	7.72	–
Cc1nc2c(CCC(F)(F)C(F)(F)F)nc(-c3nc(N)c4c(n3)NC(=O)C4(C)c3ccc(F)cc3)cn2c1C#N (stereo not drawn) [Example 274A, 6-(4-amino-5-(4-fluorophenyl)-5-methyl-6-oxo-6,7-dihydro-5H-pyrrolo[2,3-d]pyrimidin-2-yl)-2-methyl-8-(3,3,4,4,4-pentafluorobutyl)imidazo[1,2-a]pyrazine-3-carbonitrile]	100%	6.62	–
Cc1nc2c(CCC(F)(F)C(F)(F)F)nc(-c3nc(N)c4c(n3)NC(=O)C4(C)c3ccc(F)cc3)cn2c1Br (stereo not drawn) [Example 266A, 4-amino-2-(3-bromo-2-methyl-8-(3,3,4,4,4-pentafluorobutyl)imidazo[1,2-a]pyrazin-6-yl)-5-(4-fluorophenyl)-5-methyl-5H-pyrrolo[2,3-d]pyrimidin-6(7H)-one]	101%	6.85	–
CC(C)Cc1nc(-c2nc(N)c3c(n2)NC(=O)C3(c2ccc(Cl)cc2)C2CC2)cn2ccnc12 (stereo not drawn) [Example 22B, 4-amino-5-(4-chlorophenyl)-5-cyclopropyl-2-(8-isobutylimidazo[1,2-a]pyrazin-6-yl)-5H-pyrrolo[2,3-d]pyrimidin-6(7H)-one]	91%	6.82	–
CC1(c2ccc(Cl)cc2)C(=O)Nc2nc(-c3cn4cc(C(F)(F)F)nc4c(Cc4ccc(F)cc4)n3)nc(N)c21 (stereo not drawn) [Example 153A, 4-amino-5-(4-chlorophenyl)-2-(8-(4-fluorobenzyl)-2-(trifluoromethyl)imidazo[1,2-a]pyrazin-6-yl)-5-methyl-5H-pyrrolo[2,3-d]pyrimidin-6(7H)-one]	110%	7.43	–
Cc1nnc(C2(C)C(=O)Nc3nc(-c4cn5ccnc5c(CCC(F)(F)C(F)(F)F)n4)nc(N)c32)o1 (stereo not drawn) [Example 57A, 4-amino-5-methyl-5-(5-methyl-1,3,4-oxadiazol-2-yl)-2-(8-(3,3,4,4,4-pentafluorobutyl)imidazo[1,2-a]pyrazin-6-yl)-5H-pyrrolo[2,3-d]pyrimidin-6(7H)-one]	101%	6.04	–
CCCc1nc(-c2nc(N)c3c(n2)NC(=O)C3(c2ccc(C(F)(F)F)cn2)C2CC2)cn2ccnc12 (stereo not drawn) [Example 341A, 4-amino-5-cyclopropyl-2-(8-propylimidazo[1,2-a]pyrazin-6-yl)-5-(5-(trifluoromethyl)pyridin-2-yl)-5H-pyrrolo[2,3-d]pyrimidin-6(7H)-one]	106%	5.68	–
COc1ccc(C2(C)C(=O)Nc3nc(-c4cn5ccnc5c(CCC(F)(F)C(F)(F)F)n4)nc(N)c32)cn1 (stereo not drawn) [Example 236B, 4-amino-5-(6-methoxypyridin-3-yl)-5-methyl-2-(8-(3,3,4,4,4-pentafluorobutyl)imidazo [1,2-a]pyrazin-6-yl)-5H-pyrrolo[2,3-d]pyrimidin-6(7H)-one]	91%	7.46	–
